Measurements from PMC12990037, “Discovery of Two Structurally Distinct Classes of Inhibitors Targeting the Nuclease MUS81 and Enhancing Efficacy of Chemotherapy in Cancer Cells” (Journal of Medicinal Chemistry, 2026).

Tests used:
Assay type in all cases: cell-based
CAL51 MUS81^–/– cells = test: Cell proliferation assay (CyQUANT), combination with cisplatin
Protocol: CAL51 WT, CAL51 MUS81^–/–, U2OS, and HEK293 cells were seeded in a 96-well plate and treated with the respective concentration of selected inhibitors. After incubation for 4–5 days, cells were harvested while the untreated control was still subconfluent. The plate was then incubated at −80 °C to achieve cell lysis. Cell proliferation was assessed using the CyQUANT Cell Proliferation Assay kit (Thermo Fisher Scientific) according to manufacturer’s instructions. […] was measured using a plate reader (Infinite F500, Tecan Austria GmbH).

EJ5-GFP cells = test: I-SceI-based NHEJ repair reporter assay; details: 72 h
Protocol: 3 MUS81 inhibitors suppress HR and BIR. (A) I-SceI-based BIR repair efficiency was measured in U2OS BIR-GFP cells treated with DMSO, two different siRNAs targeting MUS81, or the indicated concentrations of MU262 and MU876, and their control analogues for 72 h. The percentage of repair was normalized to the DMSO-treated control (D). n = 3. Error bars represent standard deviation (s.d.); ****p <0.0001 (unpaired, two-tailed t-test). […] (C,D) I-SceI-based HR (C) and NHEJ (D) repair efficiency was measured using U2OS DR-GFP and EJ5-GFP cells, respectively, following treatment with DMSO, MU262,MU876, or their control analogues for 72 h. The percentage of repair was normalized to the DMSO-treated control. n = 3. Error bars represent s.d.; *p <0.05, **p <0.01, ****p <0.0001 (unpaired, two-tailed t-test).
Reporter DR-GFP and […] U2OS cells along with BIR-GFP cells were transfected with 2.5 μg of I-SceI-expressing pCAGGS vector and subsequently treated with MUS81 inhibitors at the indicated concentrations. After transfection (72 h), cells were trypsinized and resuspended in 3% BSA in PBS. GFP fluorescence detection was carried out using a BD FACSVerse flow cytometer, and the data were analyzed with FlowJo software (BD Life Sciences). Data presented in the graph were normalized to the DMSO-treated sample.

U2OS cells [1] = test: Annexin V apoptotic assay; details: 3 days
Protocol: Given these promising findings, we further investigated the specificity of MU262 and MU876 and potential short-term cytotoxicity. To mirror the treatment duration used in BIR and HR assays, U2OS cells were exposed to the inhibitors or siRNA for 3 days.
U2OS WT cells (300,000) were seeded in a 6-well plate, a subset of them was treated with either control siRNA or siRNA targeting MUS81. After adhesion, cells were treated with the respective inhibitors for 72 h during which CPT (100 μM, Sigma-Aldrich) was added for the last 2 h. Cells were harvested, washed in ice-cold PBS, and collected by centrifugation at 500g for 5 min. Cells were simultaneously stained with FITC-labeled annexin V antibody (556419, Becton Dickinson) and PI (5 μL) at room temperature for 15 min, protected from light. Stained cells were analyzed using a BD FACSVerse flow cytometer (Becton Dickinson) and FlowJo software (BD Life Sciences). At least 20,000 cells were used for each measurement, and experiments were performed in duplicates.

U2OS cells [2] = test: γH2AX foci immunofluorescence, 72 h treatment
Protocol: 6 MUS81 inhibition induces persistent DNA damage leading to reduced cell survival. (A) U2OS cells were treated with DMSO, cisplatin as a positive control, control or MUS81-targeting siRNA, MU262, MU876, and their negative control counterparts at the indicated concentrations for 72 h. Representative images show staining of a DNA damage marker γH2AX in green with counterstaining of DAPI in blue. The concentration of all inhibitors shown in (A) is 2.5 μM. (B) DNA damage was assessed by quantifying γH2AX foci per nucleus from (A) using CellProfiller software. The graph represents percentage (%) of cells with ≥20 γH2AX foci per nucleus across different concentrations of inhibitors. n = 3; error bars represent s.d. (C) Indicated number of U2OS cells was transfected with a nontargeting siRNA (siCon) or MUS81-targeting siRNA (siMUS81) seeded for a CFA. […] (D) Quantification of (C), error bars represent s.d.; ****p <0.0001 (unpaired, two-tailed t-test). […] (F) Quantification of (E) using a nonlinear regression fitting model. n = 3. […] (H) Quantification of (G) using a nonlinear regression fitting model. n = 3.
U2OS, CAL51 WT, and CAL51 MUS81^–/– cells (10,000) were seeded in a 96-well plate 24 h before the treatment. […] The γH2AX foci were detected and quantified using CellProfiler (Broad Institute of MIT and Harvard). The analyzed data were plotted in RStudio software using R programming language.

Row | SMILES | sensitization to cisplatin (CAL51 MUS81^–/– cells) | effect on NHEJ (EJ5-GFP cells) | apoptosis (Annexin V staining) (U2OS cells [1]) | γH2AX (DNA damage) foci (U2OS cells [2])
1 | CCc1nn2c(O)c(-c3nc4ccccc4[nH]3)nnc2c1-c1ccc(F)cc1 [Compound 18, 3-(1H-Benzo[d]imidazole-2-yl)-7-ethyl-8-(4-fluorophenyl)pyrazolo[5,1-c][1,2,4]triazin-4-ol] | no additional sensitization | no negative effect | no increase in apoptosis | significantly increased the number of DNA damage foci in a concentration-dependent manner
2 | Cc1cc(=O)[nH]c(-n2nc(-c3ccccc3)cc2NC(=O)c2cc(-c3ccccc3)on2)n1 [Compound 32, N-(1-(4-Methyl-6-oxo-1,6-dihydropyrimidin-2-yl)-3-phenyl-1H-pyrazol-5-yl)-5-phenylisoxazole-3-carboxamide] | no additional sensitization | no negative effect | no increase in apoptosis | significantly increased the number of DNA damage foci in a concentration-dependent manner
